Data on 15 molecules can be found in patent US9156853B2, “AKT inhibitor compounds for treatment of cancer” (ALMAC DISCOVERY LIMITED, priority 2012, dated 2015).

What all share (format): biochemical
One assay addresses T1, AKT1 (Homo sapiens, UniProt P31749).
T1 construct: purchased SignalChem
Description: AKT Kinase Assay (IMAP fluorescent polarisation), AKT1 isoform. The conditions noted are these: for IC50: activated AKT1, FAM Crosstide substrate; for potency against AKT1 compared with the comparator compound: compared with the non-hydroxylated Compound A, F or L. As for the experimental part:
(§1) Testing of the compounds was performed using an AKT Kinase Assay:
(§2) Activated AKT isoforms 1, 2 and 3 were assayed utilising a 5′ FAM Crosstide (Seq. GRPRTSSFAEG-OH). The extent of kinase phosphorylation was determined by fluorescent polarisation using IMAP progressive binding reagent, which introduces binding beads which allow the reagent to specifically bind to phosphate residues via covalent co-ordination complex bonds.
(§3) iMAP binding solution stops Crosstide/kinase interaction and specifically binds phosphorylated substrates. The degree of phosphorylation is determined by fluorescent polarisation (excitation 485 nm; emission 528 nm) or the reduction in speed of rotation of the excited substrate.
(§4) The following materials were used in the assay: • a) Activated AKT isoforms (SignalChem.) dissolved in Complete Reaction buffer at a predetermined concentration selected so that the assay was carried out in the linear range. • b) AKT substrate peptide: FAM Crosstide (R7110) Molecular Devices, diluted in complete reaction buffer. • c) iMAP Progressive Screening Express Kit (R8127) Molecular Devices • d) Complete Reaction Buffer containing 0.1% BSA, 10 mM Tris-HCl, 10 mM MgCl2, 0.05% NaN3 and 0.01% phosphate free BSA, 1 mM DTT • e) Progressive Binding Solution containing 75% Buffer A, 25% Buffer B and low volume Binding Reagent which contains the binding entity for the assay • f) ATP diluted in complete reaction buffer • g) Black polystyrene 384 well assay plates (Nunc). • h) Biotek Synergy 4 Hybrid Plate reader.
(§5) 5 μl of test compound was dissolved in DMSO (Sigma Aldrich) and serially diluted in complete reaction buffer to give a fourteen point half log dose response and plated into 384 well black plates. The compound was incubated at room temperature with activated AKT isoform (5 μl) at the predetermined concentration, for 45 min.
(§6) 2.5 μl of ATP solution mixed with 2.5 μl of AKT substrate peptide (FAM Crosstide (R7110) Molecular Devices) were dispensed into each well and the plate centrifuged at 1000 rpm for 20 seconds to ensure homogenous mixing of reagents. The reaction mix was incubated in the dark for 1 h at room temperature.
(§7) The kinase reaction was stopped by the addition of Progressive Binding Solution and the mixture allowed to equilibrate for 1 h in the dark, at room temperature.
(§8) The fluorescent polarisation generated in each well was determined using a […] Synergy 4 Hybrid plate reader. In brief, each reaction solution was excited at 485 nm with the emission measured at 528 nm in both the parallel and perpendicular pathway.
(§9) The polarisation value generated in each well was calculated by Gen5 software (Biotek) and the % inhibition of kinase activity compared to vehicle control was calculated via GraphPad Prism. IC50 values for each compound were calculated by non-linear regression analysis using Prism software.
(§10) All plates were internally controlled by two methods. Firstly, by calculating the signal:noise ratio; based on kinase polarisation without inhibitor and polarisation generated by complete reaction buffer in the absence of activated kinase. Secondly by determining IC50 values generated by known inhibitors of the AKT isoforms.
(§11) The data was analysed using GraphPad Prism, with IC50 values generated using non-linear regression of the data set.

The target of another assay is T2, AKT2 (Homo sapiens, UniProt P31751).
T2 construct: purchased SignalChem
Description: AKT Kinase Assay (IMAP fluorescent polarisation), AKT2 isoform. The conditions noted are these: for IC50: activated AKT2, FAM Crosstide substrate; for potency against AKT2 compared with the comparator compound: compared with the non-hydroxylated Compound A, F or L. As for the experimental part: as §1, §2, §3, §4, §5, §6, §7, §8, §9, §10, §11

The target of another assay is T3, AKT3 (Homo sapiens, UniProt Q9Y243).
T3 construct: purchased SignalChem
Description: AKT Kinase Assay (IMAP fluorescent polarisation), AKT3 isoform. The conditions noted are these: for IC50: activated AKT3, FAM Crosstide substrate; for potency against AKT3 compared with the comparator compound: compared with the non-hydroxylated Compound A, F or L. The method, then:
as §1, §2, §3, §4, §5, §6, §7, §8, §9, §10, §11

SMILES strings stand for the structures. Counter-ions that a name gives are not always drawn. Bounds are passed on as bounds.

T2 sequence (P31751 whole entry): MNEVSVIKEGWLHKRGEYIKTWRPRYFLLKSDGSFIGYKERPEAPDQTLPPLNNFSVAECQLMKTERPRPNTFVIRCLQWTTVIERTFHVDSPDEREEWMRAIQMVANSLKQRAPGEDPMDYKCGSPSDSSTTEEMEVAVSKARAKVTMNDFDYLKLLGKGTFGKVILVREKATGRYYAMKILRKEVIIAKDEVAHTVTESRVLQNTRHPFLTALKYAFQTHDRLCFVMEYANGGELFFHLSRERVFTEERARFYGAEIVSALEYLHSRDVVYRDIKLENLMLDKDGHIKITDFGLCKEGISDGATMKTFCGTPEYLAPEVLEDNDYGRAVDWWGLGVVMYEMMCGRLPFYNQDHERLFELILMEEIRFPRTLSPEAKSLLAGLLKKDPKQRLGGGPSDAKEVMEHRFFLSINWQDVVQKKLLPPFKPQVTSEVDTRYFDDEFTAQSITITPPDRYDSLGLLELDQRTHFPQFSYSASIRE
T1 sequence (P31749 whole entry): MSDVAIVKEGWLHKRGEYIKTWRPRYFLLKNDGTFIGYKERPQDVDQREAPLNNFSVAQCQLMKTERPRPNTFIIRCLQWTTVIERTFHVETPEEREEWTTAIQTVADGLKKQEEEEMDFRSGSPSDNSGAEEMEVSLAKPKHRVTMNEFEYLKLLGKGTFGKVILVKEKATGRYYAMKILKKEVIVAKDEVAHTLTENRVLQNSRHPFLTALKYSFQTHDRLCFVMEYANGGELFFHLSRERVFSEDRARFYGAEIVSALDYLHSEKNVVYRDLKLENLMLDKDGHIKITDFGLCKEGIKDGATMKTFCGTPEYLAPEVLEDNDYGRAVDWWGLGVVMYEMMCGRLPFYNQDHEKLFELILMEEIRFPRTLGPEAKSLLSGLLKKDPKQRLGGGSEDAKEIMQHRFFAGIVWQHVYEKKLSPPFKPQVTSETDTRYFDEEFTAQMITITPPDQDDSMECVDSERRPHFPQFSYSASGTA
T3 sequence (Q9Y243 whole entry): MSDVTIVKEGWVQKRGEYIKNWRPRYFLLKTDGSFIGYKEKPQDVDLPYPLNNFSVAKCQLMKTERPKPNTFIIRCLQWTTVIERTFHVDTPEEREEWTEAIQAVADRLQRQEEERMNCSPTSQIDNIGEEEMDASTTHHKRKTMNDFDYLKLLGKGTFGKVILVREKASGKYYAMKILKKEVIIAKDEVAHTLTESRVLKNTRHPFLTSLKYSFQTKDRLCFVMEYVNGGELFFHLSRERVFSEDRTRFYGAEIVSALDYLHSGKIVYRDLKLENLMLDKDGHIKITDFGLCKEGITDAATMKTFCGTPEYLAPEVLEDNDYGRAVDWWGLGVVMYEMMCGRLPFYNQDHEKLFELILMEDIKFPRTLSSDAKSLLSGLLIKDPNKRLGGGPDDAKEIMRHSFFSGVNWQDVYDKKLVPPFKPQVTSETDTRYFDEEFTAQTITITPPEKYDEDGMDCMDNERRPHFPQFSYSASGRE

As usually defined, the IC50 is the concentration at which inhibition is half-maximal. Take `C[C@]1(O)C[C@](N)(c2ccc(-c3sc4ncn(CC(F)(F)F)c(=O)c4c3-c3ccccc3)cc2)C1` [Compound 8, 6-(4-((1s,3s)-1-Amino-3-hydroxy-3-methylcyclobutyl)phenyl)-5-phenyl-3-(2,2,2-trifluoroethyl)thieno[2,3-d]pyrimidin-4(3H)-one.HCl]: at AKT1, the IC50 is at most 0.3 µM and the “potency against AKT1 compared with the comparator compound” value is on record as “improved potency”. Moreover, at AKT2, the IC50 fell in the range of 0.02 to 0.1 µM and the “potency against AKT2 compared with the comparator compound” value is recorded as “improved potency”. Further, at AKT3, the IC50 lay in the range of 1 to 6 µM and the “potency against AKT3 compared with the comparator compound” value is listed as “improved potency”.
Consider `N[C@]1(c2ccc(-c3sc4ncn(CC(F)(F)F)c(=O)c4c3-c3ccccc3)cc2)C[C@H](O)C1` [Compound 9, 6-(4-((1s,3s)-1-Amino-3-hydroxycyclobutyl)phenyl)-5-phenyl-3-(2,2,2-trifluoroethyl)thieno[2,3-d]pyrimidin-4(3H)-one.HCl], for which, at AKT1, the IC50 was at most 0.3 µM and the “potency against AKT1 compared with the comparator compound” value is listed as “improved potency”. In addition, on AKT2, the IC50 was at most 0.02 µM and the “potency against AKT2 compared with the comparator compound” value was “improved potency”. Also, at AKT3, the IC50 fell in the range of 1 to 6 µM and the “potency against AKT3 compared with the comparator compound” value was “improved potency”.
Take `Cn1c(-c2ccc([C@]3(N)C[C@@](C)(O)C3)cc2)c(-c2ccccc2)c2c(=O)n(CC(F)(F)F)cnc21` [Compound 10, 6-(4-((1s,3s)-1-Amino-3-hydroxy-3-methylcyclobutyl)phenyl)-7-methyl-5-phenyl-3-(2,2,2-trifluoroethyl)-3H-pyrrolo[2,3-d]pyrimidin-4(7H)-one.HCl]: the 50% inhibitory concentration (IC50) on AKT1 was in the range of 0.3 to 1.5 µM. Besides, on AKT2, the IC50 is at most 0.02 µM and the “potency against AKT2 compared with the comparator compound” value is “improved potency”. Moreover, at AKT3, the IC50 lay in the range of 1 to 6 µM and the “potency against AKT3 compared with the comparator compound” value was “improved potency”.
As for `Cn1c(-c2ccc([C@]3(N)C[C@H](O)C3)cc2)c(-c2ccccc2)c2c(=O)n(CC(F)(F)F)cnc21` [Compound 11, 6-(4-((1r,3r)-1-Amino-3-hydroxycyclobutyl)phenyl)-7-methyl-5-phenyl-3-(2,2,2-trifluoroethyl)-3H-pyrrolo[2,3-d]pyrimidin-4(7H)-one.HCl], the figures for the IC50 at AKT1, at AKT2 and on AKT3 were above 1.5 µM, 0.02 to 0.1 µM and above 6 µM, respectively.
Regarding `N[C@]1(c2ccc(-c3sc4ncn(CC(F)(F)F)c(=O)c4c3-c3ccccc3)cc2)C[C@@H](O)C1` [Compound 12, 6-(4-((1r,3r)-1-Amino-3-hydroxycyclobutyl)phenyl)-5-phenyl-3-(2,2,2-trifluoroethyl)thieno[2,3-d]pyrimidin-4(3H)-one.HCl], the values for the IC50 on AKT1, on AKT2 and on AKT3 were 0.3 to 1.5 µM, 0.02 to 0.1 µM and 1 to 6 µM, respectively. For the same molecule, the “potency against AKT2 compared with the comparator compound” value on AKT2 is on record as “improved potency”. The “potency against AKT3 compared with the comparator compound” value on AKT3 is reported as “improved potency”.
In the case of `C[C@]1(O)C[C@@](N)(c2ccc(-c3oc4ncn(CC(F)(F)F)c(=O)c4c3-c3ccncc3)cc2)C1` [Compound 13, 6-(4-((1r,3r)-1-Amino-3-hydroxy-3-methylcyclobutyl)phenyl)-5-(pyridin-4-yl)-3-(2,2,2-trifluoroethyl)furo[2,3-d]pyrimidin-4(3H)-one.TFA], the IC50 was above 1.5 µM at AKT1, at most 0.02 µM on AKT2 and above 6 µM at AKT3. Moreover, the “selectivity for AKT2 over AKT1 and AKT3 compared with compound A” value on AKT2 (compared with compound A) is given as “greater selectivity”. In addition, the “potency against AKT2 compared with the comparator compound” value on AKT2 is given as “improved potency”.
For the molecule `C[C@]1(O)C[C@@](N)(c2ccc(-c3oc4ncn(CC(F)(F)F)c(=O)c4c3-c3ccccn3)cc2)C1` [Compound 14, 6-(4-((1r,3r)-1-Amino-3-hydroxy-3-methylcyclobutyl)phenyl)-5-(pyridin-2-yl)-3-(2,2,2-trifluoroethyl)furo[2,3-d]pyrimidin-4(3H)-one.HCl], the IC50 at AKT1 is above 1.5 µM; at AKT2, above 0.1 µM; on AKT3, above 6 µM.
As for `Cn1c(-c2ccc([C@]3(N)C[C@](C)(O)C3)cc2)c(-c2ccccn2)c2c(=O)n(CC(F)(F)F)cnc21` [Compound 15, 6-(4-((1r,3r)-1-Amino-3-hydroxy-3-methylcyclobutyl)phenyl)-7-methyl-5-(pyridin-2-yl)-3-(2,2,2-trifluoroethyl)-3H-pyrrolo[2,3-d]pyrimidin-4(7H)-one.TFA], the results for the IC50 on AKT1, on AKT2 and on AKT3 were above 1.5 µM, above 0.1 µM and above 6 µM, respectively.
For `Cn1c(-c2ccc([C@]3(N)C[C@](C)(O)C3)cc2)c(-c2cccnc2)c2c(=O)n(CC(F)(F)F)cnc21` [Compound 16, 6-(4-((1r,3r)-1-Amino-3-hydroxy-3-methylcyclobutyl)phenyl)-7-methyl-5-(pyridin-3-yl)-3-(2,2,2-trifluoroethyl)-3H-pyrrolo[2,3-d]pyrimidin-4(7H)-one.TFA], in that order: above 1.5 µM, above 0.1 µM and above 6 µM.
In the same order, the values of `Cn1c(-c2ccc([C@]3(N)C[C@](C)(O)C3)cc2)c(-c2ccncc2)c2c(=O)n(CC(F)(F)F)cnc21` [Compound 17, 6-(4-((1r,3r)-1-Amino-3-hydroxy-3-methylcyclobutyl)phenyl)-7-methyl-5-(pyridin-4-yl)-3-(2,2,2-trifluoroethyl)-3H-pyrrolo[2,3-d]pyrimidin-4(7H)-one.HCl] are above 1.5 µM, above 0.1 µM and above 6 µM.
Take `Cn1c(-c2ccc([C@]3(N)C[C@@](C)(O)C3)cc2)c(-c2ccccn2)c2c(=O)n(CC(F)(F)F)cnc21` [Compound 18, 6-(4-((1 s,3s)-1-Amino-3-hydroxy-3-methylcyclobutyl)phenyl)-7-methyl-5-(pyridin-2-yl)-3-(2,2,2-trifluoroethyl)-3H-pyrrolo[2,3-d]pyrimidin-4(7H)-one.HCl]: the IC50 on AKT1 is above 1.5 µM; on AKT2, above 0.1 µM; on AKT3, above 6 µM.
Turning to `C[C@]1(O)C[C@](N)(c2ccc(-c3sc4ncn(CC(F)(F)F)c(=O)c4c3-c3ccccn3)cc2)C1` [Compound 19, 6-(4-((1s,3s)-1-Amino-3-hydroxy-3-methylcyclobutyl)phenyl)-5-(pyridin-2-yl)-3-(2,2,2-trifluoroethyl)thieno[2,3-d]pyrimidin-4(3H)-one.HCl], the half-maximal inhibitory concentration (IC50) at AKT1 was above 1.5 µM; on AKT2 it was above 0.1 µM; at AKT3 it was above 6 µM.
With `C[C@]1(O)C[C@@](N)(c2ccc(-c3sc4ncn(CC(F)(F)F)c(=O)c4c3-c3ccccn3)cc2)C1` [Compound 20, 6-(4-((1r,3r)-1-Amino-3-hydroxy-3-methylcyclobutyl)phenyl)-5-(pyridin-2-yl)-3-(2,2,2-trifluoroethyl)thieno[2,3-d]pyrimidin-4(3H)-one.HCl], the IC50 at AKT1 is above 1.5 µM; on AKT2 it was above 0.1 µM; at AKT3, above 6 µM.
As to `NC1(c2ccc(-c3sc4ncn(CC(F)(F)F)c(=O)c4c3-c3ccccc3)cc2)CCC1` [Compound F, reference compound], the IC50 was 0.3 to 1.5 µM at AKT1, above 0.1 µM on AKT2 and above 6 µM on AKT3.
For `Cn1c(-c2ccc(C3(N)CCC3)cc2)c(-c2ccccc2)c2c(=O)n(CC(F)(F)F)cnc21` [Compound L, reference compound], in that order: 0.3 to 1.5 µM, 0.02 to 0.1 µM and above 6 µM.
